According to patent US20200085839A1, “COMBINATION OF IMMUNOTHERAPEUTICS AND BISFLUOROALKYL-1,4-BENZODIAZEPINONE COMPOUNDS FOR TREATING LYMPHOMAS” (Ayala Pharmaceuticals Inc., priority 2018, published 2020):

Tests used:
Assay in all cases: Cell surface BCMA by FACS
Type in all cases: cell-based, human
[1] = tested on: SUDHL-6 cells (DLBCL)
Description: (§1) Cells were seeded at 1×10^4 cells/well in a total volume of 250 μl into a 96-well plate. The cells were cultured in RPMI supplemented with 10% FCS.
(§2) The tested compounds (Compound 1 and Compound 22) were added to the cell cultures at concentrations of: 0, 10, 1, 0.5, 0.1, 0.01, 0.001 μM ([…], 10 nM, 100 nM, 500 nM, 1000 nM, and 10000 nM). Following 24 hours of incubation at 37° C., the cells were collected and stained with anti-BCMA antibody and immediately analyzed by FACS.
(§3) […] cell lines, comprising 9 subtypes of lymphomas (see Table 1), were seeded at 1×10^5 cells/well in a total volume of 250 μl into a 96-well plate. The cells were cultured in RPMI medium supplemented with 10% FCS. Compound (22) was added to the cell cultures at a concentration of 10 μM, 1 μM, 100 nM, 10 nM, 1 nM, 100 pM, 10 pM, 1 pM, and 100 fM, and cell lines (8 from Hadassah Medical Center, 31 from Eurofins) were incubated at 37° C. for 24 hours with Compound (22). Following incubation, the cells were collected and BCMA levels were evaluated on the cell surface for cell-bound BCMA. Cells were stained with an anti-BCMA antibody (PE anti-human 19F2 BCMA, Biolegend), and cell surface BCMA levels were determined by FACS analysis (Mean Fluorescence Intensity. Soluble BCMA levels were analyzed by ELISA (Human BCMA/TNFRSF17 DuoSet kit: R&D Systems).

[2] = tested on: SUDHL-4 (Haddasah) cells (DLBCL)
Description: as §1, §2, §3

[3] = tested on: SP49 cells (Mantle Cell Lymphoma)
Description: as §1, §2, §3

[4] = tested on: RC cells (DLBCL)
Description: as §1, §2, §3

## Cc1cccc2c1NC(=O)[C@@H](NC(=O)[C@H](CCC(F)(F)F)[C@H](CCC(F)(F)F)C(N)=O)N=C2c1cccc(F)c1 [Compound (22), (2R,3S)—N-((3S)-5-(3-fluorophenyl)-9-methyl-2-oxo-2,3-dihydro-1H-1,4-benzodiazepin-3-yl)-2,3-bis(3,3,3-trifluoropropyl)succinamide]
[1]
  mBCMA (MFI) Fold Increase: 2.6 fold
[1]; 1 nM, 24 h
  BCMA (Mean Fluorescence Intensity) 1 nM Compound (22): 22915
[1]; 100 nM, 24 h
  BCMA (Mean Fluorescence Intensity) 100 nM Compound (22): 24812
[2]; SUDHL-4 (Haddasah)
  mBCMA (MFI) Fold Increase: 2.5 fold
[2]; SUDHL-4, 1 nM, 24 h
  BCMA (Mean Fluorescence Intensity) 1 nM Compound (22): 16100
[2]; SUDHL-4, 100 nM, 24 h
  BCMA (Mean Fluorescence Intensity) 100 nM Compound (22): 23438
[3]
  mBCMA (MFI) Fold Increase: 3.3 fold
[3]; 1 nM, 24 h
  BCMA (Mean Fluorescence Intensity) 1 nM Compound (22): 12697
[3]; 100 nM, 24 h
  BCMA (Mean Fluorescence Intensity) 100 nM Compound (22): 17462
[4]
  mBCMA (MFI) Fold Increase: 2.9 fold
[4]; 1 nM, 24 h
  BCMA (Mean Fluorescence Intensity) 1 nM Compound (22): 12970
[4]; 100 nM, 24 h
  BCMA (Mean Fluorescence Intensity) 100 nM Compound (22): 15001
